Laboratory results reported in patent US20200216316A1, “METHOD FOR THE MANUFACTURE OF CYCLODODECASULFUR” (EASTMAN CHEMICAL COMPANY, priority 2016, published 2020).

Tests used:
[1] = Solubility of sulfur species in p-xylene, chlorobenzene and carbon disulfide (sulfur content of equilibrated supernatant by Uniquant); format: physicochemical
Experimental: Fifty grams of p-xylene was added to each of three identical 100-milliliter jacketed glass vessels fitted with a circulating heating bath, cooling water condenser, magnetic stir bar and stir plate, and nitrogen purge. All vessels were heated to the desired temperature, and cyclooctasulfur, cyclododecasulfur (prepared as in Example 2), and unoiled commercial crystalline polymeric sulfur (Crystex™) was added in sufficient quantities to each of the glass vessels to allow undissolved solids to remain after dissolution and equilibration of the mixture. The equilibration period typically lasted 2 to 8 hours, during which the contents of the vessel were maintained at the desired temperature and stirred continuously. Upon equilibration, supernatant liquid was withdrawn from the vessels via a heated fritted glass pipette (heated to the same temperature as the solution). The supernatants were analyzed by Uniquant to determine sulfur content, indicating the solubility of the sulfur species at the vessel temperature. Similar experiments were conducted for carbon disulfide and chlorobenzene for each of the three solutes.

[2] = Thermal decomposition in p-xylene at 115° C. (sulfur content of supernatant by Uniquant); format: physicochemical; conditions: for Content of sulfur in the p-xylene solvent: 115° C.
Experimental: The purpose of this experiment was to determine the rate that polymeric sulfur thermally decomposes into cyclooctasulfur in p-xylene. Polymeric sulfur is essentially insoluble in p-xylene, except when the polymer decomposes into cyclooctasulfur. Thus, the sulfur content in the p-xylene is a measure of the amount of polymeric sulfur that has decomposed to cyclooctasulfur. In this experiment, 50.32 grams of p-xylene were added to a 100-milliliter jacketed glass vessels fitted with a circulating heating bath, cooling water condenser, magnetic stir bar and stir plate, and nitrogen purge. The p-xylene was heated to 115° C. and 2.03 grams of unoiled commercial crystalline polymeric sulfur (Crystex™) was added while stirring. Periodically samples of the supernatant liquid were withdrawn from the vessel via a heated fritted glass pipette (heated to the same temperature as the solution). These supernatant samples were analyzed by Uniquant to determine sulfur content. The sulfur content was used to calculate the amount of polymeric sulfur remaining undissolved and undecomposed to cyclooctasulfur. After 60 and 75 minutes at 115° C., about 85% and essentially 100% respectively, of the polymeric sulfur had been converted into cyclooctasulfur.
The equipment and procedure used in Example 22 for measurement of the decomposition of polymeric sulfur was used to measure the decomposition of cyclododecasulfur in para-xylene. Two grams of purified cyclododecasulfur (produced by a procedure in the fashion of Example 2) was heated and stirred in 50.0 grams of p-xylene in a 100-milliliter jacketed glass vessels fitted with a circulating heating bath, cooling water condenser, magnetic stir bar and stir plate, and nitrogen purge. After 60, 75, and 120 minutes at 115° C., the content of sulfur in the p-xylene solvent was found by Uniquant to be about 0.4 wt % in each case, similar to the solubility of cyclododecasulfur in p-xylene at 115° C. (see Example 21). Upon cooling of the p-xylene, filtration, and drying of the recovered solids overnight in a vacuum oven at room temperature and 0.067 MPa (absolute), greater than 97% of the cyclododecasulfur input weight of solids was recovered.

Solubility in weight % of solute in solvent ([1]; CS2, 22 ° C.) [wt %]	Solubility in weight % of solute in solvent ([1]; CS2, 45 ° C.) [wt %]	Solubility in weight % of solute in solvent ([1]; Cl-benzene, 22 ° C.) [wt %]	Solubility in weight % of solute in solvent ([1]; Cl-benzene, 45 ° C.) [wt %]	Solubility in weight % of solute in solvent ([1]; P-xylene, 22 ° C.) [wt %]	Solubility in weight % of solute in solvent ([1]; P-xylene, 45 ° C.) [wt %]	Input weight of solids recovered after heating ([2]; after 120 minutes at 115° C. in p-xylene, cooling, filtration and drying)	Fraction decomposed/converted to cyclooctasulfur ([2]; mixture of polymeric sulfur and cyclododecasulfur in p-xylene at 115° C. for two hours)	Content of sulfur in the p-xylene solvent ([2]; 60 minutes)	Content of sulfur in the p-xylene solvent ([2]; 75 minutes)	Content of sulfur in the p-xylene solvent ([2]; 120 minutes)	Solubility in weight % of solute in solvent ([1]; Cl-benzene, 115 ° C.) [wt %]	Solubility in weight % of solute in solvent ([1]; P-xylene, 115 ° C.) [wt %]	SMILES
32	48	2.4	6.2	2.3	5.6	–	–	–	–	–	–	–	S1SSSSSSS1 [Cyclooctasulfur, cyclooctasulfur, reference compound]
0.2	0.5	–	0.015	–	<0.05	greater than 97%	less than 3%	about 0.4 wt %	about 0.4 wt %	about 0.4 wt %	0.44	0.4	S1SSSSSSSSSSS1 [Cyclododecasulfur, cyclododecasulfur]
